Publication PMC4550876, “Discovery of γ-Mangostin as an Amyloidogenesis Inhibitor” (Scientific Reports, 2015)

Assays:
V30M mutated TTR = target: T1, V30M mutated TTR (Homo sapiens, UniProt P02766, V50M); experiment: Acid-mediated aggregation experiment (thioflavin T assay) of amyloid fibril formation; type: biochemical; settings: 10 μM V30M; for EC50 / inhibition at 20 µM / Inhibition ratio at 20 μM: pH 4.5, 310 K, 96 h; for EC50: 0–20 μM compound, thioflavin T fluorescence; for inhibition at 20 µM / Inhibition ratio at 20 μM: 20 μM compound; for inhibition at 20 µM: read-out: Inhibition ratio at 20 μM
T1 construct: made in house
From the text: V30M mutated TTR (V30M), which is most commonly associated with FAP, was used in this study, along with the following commercially available compounds (Fig. 1 and Table 1): α-mangostin (α-M, 1), 3-isomangostin (2) 9-hydroxycalabaxanthone (3), γ-mangostin (γ-M, 4), gartanin (5), 8-deoxygartanin (6), garcinone C (7), norathyriol (8), 1,3,7-trihydroxy-2-prenylxanthone (9), 3,4,5,6-tetrahydroxyxanthone (10), 1,6,7-trihydroxyxanthone (11) and mangiferin (12). Amyloid fibril formation of V30M was induced by acidic pH and the amount of fibril was quantified using thioflavin T in the presence of 0–20 μM of the compounds. The EC50 values were calculated as previously described.
Thioflavin T assay was performed using V30M in [20 mM Tris-HCl pH 8.0 and 150 mM NaCl] and 10 mM stock solutions (ethanol) of xanthone derivatives. Prior to acid-mediated aggregation, 50 μL of V30M (100 μM) was incubated for 30 min in the presence of xanthone derivatives at room temperature. After the incubation, the pH was decreased to 4.5 by adding 450 μL of 50 mM sodium acetate pH 4.5. The sample was gently vortexed and incubated at 310 K for 96 h. At this time, the concentrations of V30M and the xanthone derivatives were 10 μM and 2.5-20 μM, respectively. The solution was 5.5-fold diluted with 200 mM Tris-HCl buffer (pH 8.0). Thioflavin T assays were performed via the addition of 10 mM thioflavin T to 1.8 μM TTR samples. The final concentration of thioflavin T was 20 μM. Fluorescence emission spectra were obtained with excitation and emission wavelengths of 440 and 484 nm, respectively. The fluorescence of the sample without incubation at pH 4.5 was used as a 100% control, and that of the sample in the absence of xanthone derivatives with incubation at pH 4.5 was used as a 0% control. The amyloid fibril inhibitory ratio (%) = 100 × [1 - (fluorescence at each concentration of xanthone derivatives - 100% control)/(0% control - 100% control)]. Amyloid fibril inhibitory curves were fitted using the 4-parameter logistic model by the least squares methods and at least 3 ligand concentrations were used[30]. EC50 was estimated according to this model.

V30M tetramer = target: T2, V30M tetramer (Homo sapiens, UniProt P02766, V50M); experiment: Glutaraldehyde cross-linking assay of quaternary structural stability at acidic pH; type: biochemical; settings: pH 4.5, 310 K, 10 days, 3.6 μM V30M, compound 5 and 50 μM, SDS-PAGE
T2 construct: made in house
Method: The effect of the selected compounds on the quaternary structural stability of V30M at acidic pH was assessed using glutaraldehyde cross-linking followed by SDS-PAGE as previously described.
Glutaraldehyde cross-linking experiments were performed as previously described with some minor modifications. The stock solutions of the selected compounds were prepared in ethanol. Prior to the acid-mediated tetramer dissociation, V30M in solution [20 mM Tris-Cl pH 8.0 and 150 mM NaCl] was incubated with the compounds at room temperature for 30 min. After the incubation period, a 2-fold volume of 0.1 M sodium acetate pH 4.5 was added, and then the sample was incubated at 310 K for 10 days. At this stage, the protein concentration was 3.6 μM, and the compound concentrations were 5 and 50 μM. After the incubation period, 50 μL aliquots of the incubated samples were mixed with 2.5 μL of 25% glutaraldehyde and incubated at room temperature for 4 min, and the reactions were terminated by the addition of 5 μL of sodium borohydrate (7% (w/v) in 0.1 N NaOH). The aliquots were then mixed with SDS sample buffer, boiled and resolved by SDS-PAGE. The protein bands were visualized by silver staining.

V30M = target: T3, V30M (Homo sapiens, UniProt P02766, V50M); experiment: Intrinsic fluorescence quenching titration; type: binding; settings: 2 μM TTR, excitation 280 nm, 0–20 μM γ-M
T3 construct: made in house
Method: (§1) V30M was titrated with various concentrations of γ-M. A previous study has shown that the binding to TTR induces quenching of the intrinsic fluorescence emission from TTR at 336 nm[22]. […] In addition, we performed a competitive binding assay using trans-resveratrol, which is known to bind to the T4-binding sites of TTR. […] For additional evidence, a pull-down assay was carried out using Sepharose 4B beads coupled with γ-M. V30M was detected in the Sepharose 4B-γ-M-coupled beads but not in Sepharose 4B beads alone or in Sepharose 4B beads alone with free γ-M (Fig. 2c).
(§2) The binding of γ-M to TTR was confirmed by an intrinsic emission fluorescence spectrum assay and a resveratrol competitive binding assay. For the intrinsic fluorescence, the spectra (300–400 nm) of 2 μM TTR in [50 mM Tris-HCl pH 7.5 and 150 mM NaCl] were recorded by exciting the protein at 280 nm[22]. […] The spectra were recorded at 0, 0.5, 2, 5 and 20 μM of γ-M. For the resveratrol competitive binding assay, the spectra (350–500 nm) of 2 μM TTR in [50 mM Tris-HCl pH 7.5 and 150 mM NaCl] were recorded by exciting trans-resveratrol at 320 nm[23]. The solutions of resveratrol and γ-M were sequentially added to the protein solution in the same manner as for the intrinsic fluorescence assay.

T4-binding sites of V30M = target: T4, T4-binding sites of V30M (Homo sapiens, UniProt P02766, V50M); experiment: Resveratrol competitive binding assay; settings: 2 μM TTR, 5 μM resveratrol, excitation 320 nm
T4 construct: made in house
Method: as §1, §2

| SMILES | EC50 (V30M mutated TTR) | inhibition at 20 µM (V30M mutated TTR) | other results |
| --- | --- | --- | --- |
| O=c1c2cc(O)c(O)cc2oc2cc(O)c([C@@H]3O[C@H](CO)[C@@H](O)[C@H](O)[C@H]3O)c(O)c12 [Compound 12, mangiferin] | > 20 µM | 8.5 ± 2.1% | – |
| COc1c(O)cc2oc3cc4c(c(O)c3c(=O)c2c1CC=C(C)C)CCC(C)(C)O4 [Compound 2, 3-isomangostin] | > 20 µM | 32% | Inhibition ratio at 20 μM (V30M mutated TTR): 32 ± 1.3% |
| COc1c(O)cc2oc3cc(O)c(CC=C(C)C)c(O)c3c(=O)c2c1CC=C(C)C [Compound 1, α-mangostin] | 15 ± 0.75 µM | 61% | Inhibition ratio at 20 μM (V30M mutated TTR): 61 ± 4.7%; tetramer fraction (V30M tetramer): increased in a dose-dependent manner |
| CC(C)=CCc1c(O)cc2oc3ccc(O)cc3c(=O)c2c1O [Compound 9, 1,3,7-trihydroxy-2-prenylxanthone] | 13 ± 1.1 µM | 67 ± 2.7% | – |
| CC(C)=CCc1c(O)c(CC=C(C)C)c2oc3c(O)cccc3c(=O)c2c1O [Compound 6, 8-deoxygartanin] | – | – | inhibitory ability against amyloid fibril formation (V30M mutated TTR; up to 20 μM compound): did not exhibit the inhibitory ability |
| O=C(O)c1cc(-c2ccc(F)cc2F)ccc1O [diflunisal, reference compound] | – | 97 ± 1.7% | – |
| CC(C)=CCc1c(O)cc2oc3cc(O)c(O)c(CC=C(C)C)c3c(=O)c2c1O [Compound 4, γ-mangostin] | 7 ± 0.6 µM | 97 ± 1.3% | quenching of the intrinsic fluorescence emission from V30M (V30M): induced similar quenching; fluorescence intensity of resveratrol bound to V30M on addition of compound (T4-binding sites of V30M): significantly decreased; tetramer fraction (V30M tetramer): increased in a dose-dependent manner |
| O=c1c2cc(O)c(O)cc2oc2cc(O)cc(O)c12 [Compound 8, norathyriol] | 9.7 ± 0.48 µM | 79 ± 0.49% | – |
| O=c1c2ccc(O)c(O)c2oc2c(O)c(O)ccc12 [Compound 10, 3,4,5,6-tetrahydroxyxanthone] | > 20 µM | 25 ± 0.97% | – |
| CC(C)=CCc1c(O)c(CC=C(C)C)c2oc3c(O)ccc(O)c3c(=O)c2c1O [Compound 5, gartanin] | > 20 µM | 30 ± 0.79% | – |
| CC(C)=CCc1c(O)cc2oc3cc(O)c(O)c(CCC(C)(C)O)c3c(=O)c2c1O [Compound 7, garcinone C] | 10 ± 0.3 µM | 83 ± 0.23% | – |
| O=c1c2cc(O)c(O)cc2oc2cccc(O)c12 [Compound 11, 1,6,7-trihydroxyxanthone] | 14 ± 0.51 µM | 64 ± 1.2% | – |
| COc1c(O)cc2oc3cc4c(c(O)c3c(=O)c2c1CC=C(C)C)C=CC(C)(C)O4 [Compound 3, 9-hydroxycalabaxanthone] | > 20 µM | 29% | Inhibition ratio at 20 μM (V30M mutated TTR): 29 ± 1.5% |
